Results published in BindingDB's records for PubMed 34146913 (National Institute of Pharmaceutical Education and Research …, 2021).
pIC50, pKd: −log10 of the molar value.

Key:
[1] = Inhibition of DC-SIGN extracellular domain (unknown origin) expressed in Escherichia coli DE3(BL21) incubated for 1 hrs in presence of Man-Fl-BSA by high-throughput fluorescence-based assay
[2] = Inhibition of DC-SIGN extracellular domain (unknown origin) by SPR analysis

Row | Structure (SMILES) | pIC50 [1] | pKd [2]
1 | CCC(=O)Nc1nc(C)c(-c2csc(Nc3ccc(N(C)C)cc3)n2)s1 | 5.80 | –
2 | O=C1Nc2cc(C(=O)N3CCN(c4ccccc4)CC3)ccc2NC1CSCc1c(F)cccc1Cl (centres undefined) | 5.14 | –
3 | Cc1ccc(N(C)S(=O)(=O)c2ccc3[nH]cc(C(=O)N4CCN(c5ccccc5)CC4)c(=O)c3c2)cc1C | 5.21 | –
4 | COC(=O)c1ccc(-c2ccc(/C=C3\C(=O)N(c4ccc(S(N)(=O)=O)cc4)N=C3C(F)(F)F)o2)cc1 | 4.49 | –
5 | CN1CCN(c2ccc(/C=C3\Sc4ccccc4C3=O)cc2[N+](=O)[O-])CC1 | 5.00 | –
6 | COc1ccccc1N1CCN(C(=O)c2ccc3c(c2)NC(=O)C(CCCc2ccccc2C)N3)CC1 (centres undefined) | 5.36 | –
7 | NOC(=O)c1ccc(CCCC2Nc3ccc(C(=O)N4CCN(c5ncccn5)CC4)cc3NC2=O)cc1 (centres undefined) | 5.59 | –
8 | N=c1c(C(=O)NCCc2cn3c(n2)SCC3)cnc2sccn12 | – | 3.40
9 | O=C(NCCc1c[nH]c2ccccc12)c1c(O)nc2sccn2c1=O | – | 3.74
